Test system: NOMO1
Assay: cell viability relative to DMSO control; higher = less cytotoxic
Settings: 48 h
Outline: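 Three leukemia lines were tested: NOMO1 and SEM at 500 cells/well and P12-Ichikawa at 1000 cells/well. Each was adapted for at least four passages in each medium and seeded in 5 μl in 1536-well plates, and library compounds in DMSO were pin-dosed from 47 μM to 0.79 nM in 11 threefold steps. After 48 h at 37°C, CellTiter-Glo One luminescence was read. Viability is a percentage relative to DMSO wells on each plate, with cell-free wells as background.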

[1] = HPLM + 10% dialyzed FBS, 0.000781 µM
[2] = HPLM + 10% dialyzed FBS, 0.00234 µM
[3] = HPLM + 10% dialyzed FBS, 0.00702 µM
[4] = HPLM + 10% dialyzed FBS, 0.0211 µM
[5] = HPLM + 10% dialyzed FBS, 0.0632 µM
[6] = HPLM + 10% dialyzed FBS, 0.19 µM
[7] = HPLM + 10% dialyzed FBS, 0.569 µM
[8] = HPLM + 10% dialyzed FBS, 1.71 µM
[9] = HPLM + 10% dialyzed FBS, 5.12 µM
[10] = HPLM + 10% dialyzed FBS, 15.4 µM
[11] = HPLM + 10% dialyzed FBS, 46.1 µM
[12] = RPMI 5 mM glucose + 10% FBS, 0.000781 µM
[13] = RPMI 5 mM glucose + 10% FBS, 0.00234 µM
[14] = RPMI 5 mM glucose + 10% FBS, 0.00702 µM
[15] = RPMI 5 mM glucose + 10% FBS, 0.0211 µM
[16] = RPMI 5 mM glucose + 10% FBS, 0.0632 µM
[17] = RPMI 5 mM glucose + 10% FBS, 0.19 µM
[18] = RPMI 5 mM glucose + 10% FBS, 0.569 µM
[19] = RPMI 5 mM glucose + 10% FBS, 1.71 µM
[20] = RPMI 5 mM glucose + 10% FBS, 5.12 µM
[21] = RPMI 5 mM glucose + 10% FBS, 15.4 µM
[22] = RPMI 5 mM glucose + 10% FBS, 46.1 µM
[23] = RPMI 5 mM glucose + 10% dialyzed FBS, 0.000781 µM
[24] = RPMI 5 mM glucose + 10% dialyzed FBS, 0.00234 µM
[25] = RPMI 5 mM glucose + 10% dialyzed FBS, 0.00702 µM
[26] = RPMI 5 mM glucose + 10% dialyzed FBS, 0.0211 µM
[27] = RPMI 5 mM glucose + 10% dialyzed FBS, 0.0632 µM
[28] = RPMI 5 mM glucose + 10% dialyzed FBS, 0.19 µM
[29] = RPMI 5 mM glucose + 10% dialyzed FBS, 0.569 µM
[30] = RPMI 5 mM glucose + 10% dialyzed FBS, 1.71 µM
[31] = RPMI 5 mM glucose + 10% dialyzed FBS, 5.12 µM
[32] = RPMI 5 mM glucose + 10% dialyzed FBS, 15.4 µM
[33] = RPMI 5 mM glucose + 10% dialyzed FBS, 46.1 µM

| SMILES | cell viability [1] [%] | cell viability [2] [%] | cell viability [3] [%] | cell viability [4] [%] | cell viability [5] [%] | cell viability [6] [%] | cell viability [7] [%] | cell viability [8] [%] | cell viability [9] [%] | cell viability [10] [%] | cell viability [11] [%] | cell viability [12] [%] | cell viability [13] [%] | cell viability [14] [%] | cell viability [15] [%] | cell viability [16] [%] | cell viability [17] [%] | cell viability [18] [%] | cell viability [19] [%] | cell viability [20] [%] | cell viability [21] [%] | cell viability [22] [%] | cell viability [23] [%] | cell viability [24] [%] | cell viability [25] [%] | cell viability [26] [%] | cell viability [27] [%] | cell viability [28] [%] | cell viability [29] [%] | cell viability [30] [%] | cell viability [31] [%] | cell viability [32] [%] | cell viability [33] [%] |
| --- | --- | --- | --- | --- | --- | --- | --- | --- | --- | --- | --- | --- | --- | --- | --- | --- | --- | --- | --- | --- | --- | --- | --- | --- | --- | --- | --- | --- | --- | --- | --- | --- | --- |
| CN(C)c1ccc2cc(C(=O)N[C@@H](CCCNC(=N)CCl)C(=O)NCc3ccccc3)ccc2c1 | 108 | 128 | 108 | 121 | 125 | 107 | 112 | 112 | 106 | 87.2 | 14 | 92 | 119 | 104 | 96.3 | 98.5 | 102 | 97 | 98.6 | 100 | 85.4 | 8.34 | 114 | 109 | 103 | 110 | 111 | 119 | 115 | 105 | 105 | 98.7 | 12.5 |
| OCCCNc1cc(-c2ccnc(Nc3cccc(Cl)c3)n2)ccn1 | 106 | 107 | 119 | 119 | 114 | 80.4 | 14.1 | 7.46 | 8.09 | 6.31 | 4.31 | 92.2 | 98.4 | 117 | 111 | 107 | 54.5 | 18.8 | 9.75 | 8.02 | 7.79 | 4.61 | 97.5 | 95.8 | 100 | 106 | 100 | 63.3 | 15.8 | 7.75 | 7.44 | 7.1 | 5.05 |
| CCCCCCCCCCCCCCCCCCOP(=O)([O-])OC1CC[N+](C)(C)CC1 | 93.4 | 114 | 94.8 | 114 | 110 | 120 | 114 | 107 | 107 | 98.4 | 99 | 90.5 | 105 | 113 | 121 | 98.5 | 113 | 120 | 105 | 110 | 93.8 | 96.4 | 96.6 | 107 | 105 | 103 | 100 | 118 | 110 | 102 | 106 | 93.2 | 84.7 |
| CCN(CC)CCN1C(=O)\C(=N/C2=CC=CC=C12)CC3=CC=C(OC)C=C3 | 111 | 117 | 99.1 | 118 | 119 | 110 | 115 | 115 | 109 | 113 | 116 | 96.1 | 101 | 117 | 109 | 97.4 | 96.6 | 107 | 102 | 111 | 101 | 97.7 | 98.4 | 102 | 113 | 111 | 115 | 119 | 119 | 121 | 111 | 101 | 102 |
